Legend:
Hamsters [1] = test: Bleomycin-induced pulmonary toxicity in hamsters: lung histology; format: in vivo, hamster; settings: pre-treatment/IT instillation; day 22
Description: (§1) Hamsters weighing 120 g were treated with bleomycin (1 unit) by the intratracheal route (IT) or with an equivalent volume of saline. In addition, the animals were pre-treated with ALC (200 mg/kg) or saline intraperitoneally just before the instillation of bleomycin, followed by daily injections for 1 week. The animals were allowed 3 weeks to recover prior to taking the tissue samples. At the time tissue samples were taken (day 22), one lung of each animal was prepared for histological investigation and the other lung for quantitative determination of hydroxyproline.
The lungs were fixed by insufflation at 20 cm of H2O ex vivo with 10% formaldehyde in PBS (pH 7), embedded in paraffin, sectioned and stained with haematoxylin/eosin. Sections with similar orientation from the portion of the pulmonary lobe—upper, middle and lower, respectively—were examined to verify the presence and degree of inflammatory infiltrate, oedema and interstitial and intra-alveolar fibrosis.

Hamsters [2] = test: Bleomycin-induced pulmonary toxicity in hamsters: lung hydroxyproline content; format: in vivo, hamster; settings: pre-treatment i.p. (ALC 200 mg/kg or saline, daily 1 week)/intratracheal instillation (bleomycin 1 unit or saline); day 22
Description: as §1
The hydroxyproline content (one of the main constituents of collagen) was measured using the known Woessner method. Lung samples were homogenised, hydrolysed with NaOH, and then left to oxidise before adding Erlich aldehyde reagent. Duplicate aliquots of each sample were assayed by spectrophotometry and compared with a standard calibration curve obtained with purified hydroxyproline. The hydroxyproline content (HYP) is expressed as mg/lung.

[3] = tested on: L-MM3 murine breast cancer cells; test: L-MM3 murine breast cancer in Balb/c mice, taxol and PLC, Experiment B (schedule B)
Description: (§2) Cell cultures of L-MM3 murine breast cancer cells were used, cultured at 37° C. in plastic flasks in a humidified atmosphere with 5% CO^2. The cells were grown in DMEM supplemented with 10% FCS and in the presence of 2 mM L-glutamine and 80 μg/ml of gentamicin. The subconfluent cells were collected during the exponential growth phase using trypsin-EDTA and re-suspended in DMEM. They were then injected subcutaneously in female Balb/c mice weighing 20 g at a density of 4×10^5.
(§3) The tumour was measured with a calliper three times a week as soon as it became palpable. The tumour mass is calculated on the basis of the measurements of the two dimensions (length and width), expressed in mm, according to the following formula: [formula]
(§4) If we consider conventionally a tumour density equal to 1, the result is that the tumour volume is equal to (mm^3=mg).
(§5) The agent is weighed, solubilised in the specific vehicle (12 mg/ml), and stored at +4° C., sheltered from the light. At the time of use, it is diluted 1:4 with saline solution in phosphate buffer (PBS, SIGMA) and injected.
(§6) Cremophor is diluted 1:1 with ethanol and stored sheltered from the light. On the day of treatment it is diluted 1:4 with PBS.

[4] = tested on: L-MM3 murine breast cancer cells; test: L-MM3 murine breast cancer in Balb/c mice, taxol and PLC, Experiment A (schedule A)
Description: as §2, §3, §4, §5, §6

## bleomycin [Saline/bleomycin, reference compound]
Hamsters [1]
  lung histology (in words): dense fibrosis, alveolar atelectasis and oedema
Hamsters [2]
  hydroxyproline content (HYP): 1.831 mg/lung

## CCC(=O)O[C@H](CC(=O)[O-])C[N+](C)(C)C [PLC, propionyl L-carnitine]
[3]
  Animals with tumours/total animals, Day 45: 8/10
  Animals with tumours/total animals, Day 59: 8/10
  Tumour size, Day 26: 0.4 ± 0.3
  Tumour size, Day 31: 0.5 ± 0.3
  Tumour size, Day 37: 1.3 ± 0.6
  Tumour size, Day 41: 2.2 ± 1.0
  Tumour size, Day 45: 3.9 ± 1.2
  Tumour size, Day 53: 5.6 ± 1.4
  Tumour size, Day 59: 8 ± 2.2
[3]; day of inoculation
  Tumour size, Day 0: 0
[3]; taxol 30 mg/kg i.p. days 8,10,12,14, PLC 100 mg/kg s.c. to day 59
  Animals with tumours/total animals, Day 31: 3/10
[4]
  Animals with tumours/total number of animals, Day 22: 6/12
  Animals with tumours/total number of animals, Day 25: 9/12
  Animals with tumours/total number of animals, Day 28: 11/12
  Animals with tumours/total number of animals, Day 36: 12/12
  Animals with tumours/total number of animals, Day 46: 12/12
  Tumour size, Day 22: 0.6 ± 0.3
  Tumour size, Day 25: 1.2 ± 0.38
  Tumour size, Day 28: 3 ± 0.4
  Tumour size, Day 36: 9.5 ± 0.8
  Tumour size, Day 46: 15 ± 1.1
[4]; day of inoculation
  Tumour size, Day 0: 0
[4]; taxol 30 mg/kg i.p. days 15,17,19,21, PLC 100 mg/kg s.c. days 12-24
  Animals with tumours/total number of animals, Day 19: 4/12

Source: patent US6610699B2, “Use of L-carnitine and its alkanoyl derivatives in the preparation of medicaments with anticancer activity” (Sigma-Tau Industrie Farmaceutiche Riunite S.p.A., priority 1998, dated 2003)
